From patent US10463709B2, “Short synthetic peptide for treating diseases and/or conditions related to angiogenesis” (MacKay Memorial Hospital, priority 2015, dated 2019)
Several values for one entry are separate records, joined by “and”; a condition that tells them apart may be missing. Equal entries are not always repeated. Square brackets hold non-standard residues; d marks the D form. Ends that are not written are not given here.

Columns and labels:
B16-F10 melanoma cells = experiment: Experimental pulmonary metastasis in mice; format: in vivo, C57BL/6 mice; settings: for effect on number of colonies on the surface of the lung / in vivo metastasis / No. lung colonies: 10 mg/Kg intraperitoneal every 2 days; for No. lung colonies: day 8, n = 5; for Inhibition (%): lung colonies vs vehicle, 10 mg/Kg
Description: 2×10^5 B16-F10 cells were suspended in 100 μl PBS and checked for viability using trypan blue staining (>95%). The B16-F10 cells were then injected into the tail vein of the 6-week-old female C57BL/6 mice; while vehicle (DMSO), the present synthetic peptide or the control peptide (10 mg/kg) were administered by intraperitoneal injections every 2 days after the B16-F10 cell injection. Five mice were used for each group. On day 8 after inoculation of cells, the lungs were removed, and the number of visible colonies on the surface of the lungs were counted using a dissecting microscope.
Metastasis is the foremost cause of death from cancer. In this example, to investigate the efficacy of the present synthetic peptide on the metastasis of cancer cells, B16-F10 cells were injected into the tail vein of a mouse, the animal was then treated with the present synthetic peptide (7-mer or 7-mer DD, 10 mg/Kg) by intraperitoneal injections every 2 days. Upon completion of the experiment, the lungs were then removed and the tumor colonies visible to the eyes were then counted. Results are depicted in FIG. 10.

HUVECs [1] = experiment: Endothelial cell capillary-like tube formation assay; format: cell-based; settings: vs untreated HUVECs
Description: To examine the effect of the present synthetic peptide on in vitro angiogenesis, growth factor-reduced matrigel was pipetted into pre-chilled 24-well plates (150 μl matrigel per well) and polymerized for 45 min at 37° C. […] In this experiment, images were captured using a Cannon camera on Zeiss inverted microscope with magnification ×40 and tube length was quantified using Image analysis software (Image-Pro Plus). The control peptide as used in the present invention has the sequence of DLYRVR (SEQ ID NO: 10).

rat aortic ring = experiment: Rat aortic ring assay (ex vivo microvessel sprouting); design: species or system Sprague Dawley rats; settings: beta-FGF induced; peptide 50 μM
Description: Thoracic aortas were removed from euthanized 10-week-old male Sprague Dawley rats, and gently stripped off periaortic fibroadipose tissue. Aortas were sectioned to about 2-mm length rings, which were embedded in Matrigel. To induce angiogenesis, human recombinant bFGF (50 ng/ml) or bFGF plus the peptide (50 μM) was added in Matrigel. Gel (200 μl) containing an aortic ring was polymerized in 12-well plates (37° C. for 30 min) and then incubated with 1 ml of Medium 200 supplemented with 100 units/ml penicillin, and […] streptomycin and 2% FBS at 37 ° C. The cultures were propagated at 37 ° C. in a humidified incubator for up to 7 days. Sprouts were recorded using an inverted microscope platform (Leica DM16000B) with bright-field optics. Each ring was scored by three independent observers on a scale 0-4 depending on the degree of sprouting vessel being observed (0=no sprouting, 4=profuse sprouting). The experiment was repeated in triplicates.

HUVECs [2] = experiment: VEGF-induced HUVEC proliferation assay; format: cell-based; settings: vs untreated HUVECs
Description: HUVECs (1×10^5 cells per well of 6-well plate) were grown in Medium 200 with Low Serum Growth Supplement (LSGS Kit, supplement contains 1.9% FBS, 3 ng/ml bFGF, 10 μg/ml heparin, 1 μg/ml hydrocortisone, and 10 ng/ml EGF). Culture plates were coated with 2% gelatin. Cells (passages 4-8) were cultured at 37° C. in a humidified atmosphere of 5% CO2. […]
HUVECs (1×10^5 cells per well of 6-well plate) in Medium 200 supplemented with LSGS Kit were allowed to grow onto 6-well plates coated with 2% gelatin for 24 hours at 37° C. in 5% CO2. The culture medium was then replaced with serum free Medium 200 overnight. […] Then, cells were harvested by trypsin-EDTA and counted using a hemocytometer.

RPMI8226 cells = experiment: MTT assay, VEGF-induced proliferation of RPMI8226 cells; format: cell-based; settings: for biological activity of the analogue relative to the 7-mer (summary statement of the description): summary of Example 1 findings; for effect on VEGF-induced proliferation of RPMI8226 cells: VEGF 50 ng/ml, 25 μM peptide, 24 hrs, MTT
Description: The multiple myeloma line RPMI8226 was cultivated in complex medium (RPMI1640) supplemented with 10% (vol/vol) heat-inactivated fetal calf serum (Invitrogen), 50 μg/mL penicillin, 50 μg/mL streptomycin, and 2 mM L-glutamine at 37° C. in a 5% CO2 atmosphere. RPMI8226 cells were cultured in serum-free RPMI1640 medium for 24 hrs, and then cells were seeded in 48-well culture plates (3×10^5 cells/well) and continued to culture in 0.5 ml fresh serum-free RPMI1640 medium containing 25 μM peptide for another 24 hrs. The cell viability was determined by the MTT assay. Briefly, 50 μL of MTT stock solution (50 μL) (5 mg MTT dissolved in 1 ml of sterile PBS) was added to each culture well. In addition, 50 μL of the MTT stock solution was added in 500 μL of medium as the negative control. The culture plate was incubated at 37° C. for 4 hours. Aliquots (450 μl) from each sample were taken to a new well of 48-well culture plate, adding 100 μL DMSO, mixing thoroughly using the pipette and reacted at 37° C. for 20 min and read absorbance at 570 nm. These synthesized peptides were then subject to MTT assay, in which vascular endothelial growth factor (VEGF) was used as a stimulant to induce cell proliferation. Results are depicted in FIGS. 1 to 4.

[3] = test system: STZ-induced diabetic mice; experiment: Vascular abnormalities in the retina of diabetic mice; format: in vivo; settings: for Fluorescence Intensity (Fold): leaked FITC-BSA in entire retina, vs vehicle
Description: Diabetic mice were generated by a single intraperitoneal injection of streptozotocin (STZ) (150 mg/kg body weight). STZ was freshly prepared in 0.1 M citrate buffer (pH 4.5). After injection, mice were supplied with 10% sucrose overnight to prevent sudden hypoglycemic shock. After 1 week, mice with non-fasting blood glucose levels >500 mg/dl were defined as diabetic and used for the experiments. DMSO Vehicle or the present synthetic peptide (10 mg/kg; n≥3 per peptide) were administered by intraperitoneal injections twice a day. After treatment for 24 h, mice were intraperitoneal injected with 100 mg/kg of BSA-FITC for further 30 min.
To determine vascular lesions (hemorrhaging areas) in retina, the animals were euthanized by CO2 inhalation, and the eyes were enucleated and fixed by 2% paraformaldehyde for 2 hr and flat-mounted onto glass slides to obtain optical sections by an epifluorescence microscopy. Vascular lesions in the retina was scored in all four retinal quadrants of flat mounts by using a 20× objective. Six microscopic fields were sampled in each quadrant in both the central and peripheral retina, and data were presented as the average number of lesions/retina.
Vascular FITC-BSA leakage was determined by a fluorescence spectrofluorometer based on standard curves of FITC-BSA at excitation and emission wavelengths of 488 and 535 nm, respectively, and then normalized to a non-injected control retina. For this analysis, retinas were dissected from treated and untreated diabetic mice after BSA-FITC injections, and each was solubilized in 300 μL ice-cold PBS.
Diabetic retinopathy is characterized by blood-retinal barrier (BRB) breakdown and neurotoxicity. To evaluate the possible beneficial effect of the present synthetic peptides on diabetic retinopathy, STZ-induced diabetic mice were intraperitoneally injected with 7-mer peptide, DMSO vehicle or the control peptide (SEQ ID NO: 22). The retinal vascular abnormality was then monitored by detecting the extravasation of BSA-fluorescein. Results are depicted in FIG. 11.

[4] = VEGF (10 ng/mL) + 25 μM peptide

## H-DLYR[dV]RS-OH [7-mer DV]
B16-F10 melanoma cells
  effect on number of colonies on the surface of the lung / in vivo metastasis: may suppress in vivo metastasis
  No. lung colonies: 51 ± 17.0
  Inhibition (%): 77.4%
HUVECs [1]; [4]
  Tube length (Fold): 1.24 ± 0.18 Fold
Rat aortic ring
  level of sprouting microvessels around the aortic ring: inhibited
HUVECs [2]; [4]
  Cell number (Fold): 0.99 ± 0.078 Fold
RPMI8226 cells; 1 to 25 μM, RPMI8226 cells
  dose dependence of inhibitory action on VEGF-induced cell proliferation: dose dependent manner
[3]
  extravasation of FITC-BSA: may significantly prevent
  Fluorescence Intensity (Fold): 0.31 ± 0.072 Fold

## H-D[dL]YRVRS-OH [7-mer DL]
RPMI8226 cells
  biological activity of the analogue relative to the 7-mer (summary statement of the description): lose its biological activity

## NH2-Ala-Leu-Tyr-Arg-Val-Arg-Ser-COOH (ALYRVRS; not fully specified (N-terminus, C-terminus); printed as NH2-Ala-Leu-Tyr-Arg-Val-Arg-Ser-COOH) [7-mer Da]
RPMI8226 cells
  effect on VEGF-induced proliferation of RPMI8226 cells: sustained part of the 7-mer activity

## NH2-Asn-Val-Tyr-Arg-Val-Arg-Ser-COOH (NVYRVRS; not fully specified (N-terminus, C-terminus); printed as NH2-Asn-Val-Tyr-Arg-Val-Arg-Ser-COOH) [7-mer NV]
B16-F10 melanoma cells
  effect on number of colonies on the surface of the lung / in vivo metastasis: may suppress in vivo metastasis
  No. lung colonies: 55 ± 16.5
  Inhibition (%): 75.8%
HUVECs [1]; [4]
  Tube length (Fold): 1.41 ± 0.32 Fold
Rat aortic ring
  level of sprouting microvessels around the aortic ring: inhibited
HUVECs [2]; [4]
  Cell number (Fold): 1.01 ± 0.086 Fold
RPMI8226 cells
  effect on VEGF-induced proliferation of RPMI8226 cells: could sustain 7-mer bioactivity, only partly
[3]
  extravasation of FITC-BSA: may significantly prevent
  Fluorescence Intensity (Fold): 0.35 ± 0.11 Fold

## NH2-Asp-(D-Leu)-Tyr-Arg-Val-(D-Arg)-Ser-COOH (H-D[dL]YRV[dR]S-OH) [7-mer DR2]
RPMI8226 cells
  biological activity of the analogue relative to the 7-mer (summary statement of the description): lose its biological activity

## NH2-Asp-Ala-Tyr-Arg-Val-Arg-Ser-COOH (DAYRVRS; not fully specified (N-terminus, C-terminus); printed as NH2-Asp-Ala-Tyr-Arg-Val-Arg-Ser-COOH) [7-mer La]
RPMI8226 cells
  effect on VEGF-induced proliferation of RPMI8226 cells: sustained part of the 7-mer activity

## NH2-Asp-Ile-Tyr-Arg-Val-Pro-Ser-COOH (DIYRVPS; not fully specified (N-terminus, C-terminus); printed as NH2-Asp-Ile-Tyr-Arg-Val-Pro-Ser-COOH) [7-mer IP]
B16-F10 melanoma cells
  effect on number of colonies on the surface of the lung / in vivo metastasis: may suppress in vivo metastasis
  No. lung colonies: 63 ± 9.4
  Inhibition (%): 72.0%
HUVECs [1]; [4]
  Tube length (Fold): 1.66 ± 0.20 Fold
Rat aortic ring
  level of sprouting microvessels around the aortic ring: inhibited
HUVECs [2]; [4]
  Cell number (Fold): 1.05 ± 0.067 Fold
RPMI8226 cells
  effect on VEGF-induced proliferation of RPMI8226 cells: could sustain 7-mer bioactivity, only partly
[3]
  extravasation of FITC-BSA: may significantly prevent
  Fluorescence Intensity (Fold): 0.38 ± 0.12 Fold

## NH2-Asp-Leu-(D-Tyr)-Arg-Val-Arg-Ser-COOH (H-DL[dY]RVRS-OH) [7-mer DY]
HUVECs [2]; [4]
  Cell number (Fold): 1.63 ± 0.077 Fold
RPMI8226 cells
  biological activity of the analogue relative to the 7-mer (summary statement of the description): lose its biological activity

## NH2-Asp-Leu-Tyr-(D-Arg)-Val-Arg-Ser-COOH (H-DLY[dR]VRS-OH) [7-mer DR]
RPMI8226 cells
  biological activity of the analogue relative to the 7-mer (summary statement of the description): lose its biological activity

## NH2-Asp-Leu-Tyr-Arg-Val-Gln-Ser-COOH (DLYRVQS; not fully specified (N-terminus, C-terminus); printed as NH2-Asp-Leu-Tyr-Arg-Val-Gln-Ser-COOH) [7-mer (R2→Q)]
RPMI8226 cells
  effect on VEGF-induced proliferation of RPMI8226 cells: could sustain 7-mer bioactivity, only partly

## NH2-Asp-Val-Phe-Arg-Val-Arg-Thr-COOH (DVFRVRT; not fully specified (N-terminus, C-terminus); printed as NH2-Asp-Val-Phe-Arg-Val-Arg-Thr-COOH) [7-mer VFT]
RPMI8226 cells
  effect on VEGF-induced proliferation of RPMI8226 cells: could sustain 7-mer bioactivity, only partly
  biological activity of the analogue relative to the 7-mer (summary statement of the description): relatively the same bioactivity

## NH2-Leu-Leu-Tyr-Arg-Val-Arg-Ser-COOH (LLYRVRS; not fully specified (N-terminus, C-terminus); printed as NH2-Leu-Leu-Tyr-Arg-Val-Arg-Ser-COOH) [7-mer (D→L)]
RPMI8226 cells
  effect on VEGF-induced proliferation of RPMI8226 cells: could sustain 7-mer bioactivity, only partly
  biological activity of the analogue relative to the 7-mer (summary statement of the description): relatively the same bioactivity

## NH2-Phe-Leu-Tyr-Arg-Val-Arg-Ser-COOH (FLYRVRS; not fully specified (N-terminus, C-terminus); printed as NH2-Phe-Leu-Tyr-Arg-Val-Arg-Ser-COOH) [7-mer (D→F)]
RPMI8226 cells
  effect on VEGF-induced proliferation of RPMI8226 cells: could sustain 7-mer bioactivity, only partly
  biological activity of the analogue relative to the 7-mer (summary statement of the description): relatively the same bioactivity

## NH2-Val-Leu-Tyr-Arg-Val-Arg-Ser-COOH (VLYRVRS; not fully specified (N-terminus, C-terminus); printed as NH2-Val-Leu-Tyr-Arg-Val-Arg-Ser-COOH) [7-mer (D→V)]
RPMI8226 cells
  effect on VEGF-induced proliferation of RPMI8226 cells: could sustain 7-mer bioactivity, only partly
  biological activity of the analogue relative to the 7-mer (summary statement of the description): relatively the same bioactivity

## VEGF [reference compound]
HUVECs [1]; VEGF (10 ng/mL) alone
  Tube length (Fold): 3.43 ± 0.32 Fold
HUVECs [2]; VEGF (10 ng/mL) alone
  Cell number (Fold): 1.62 Fold and 1.62 ± 0.070 Fold
